CC50 data for 19 compounds are collected here from patent US20250122219A1 (priority 2023, published 2025).

This data set is described as follows: Cytotoxicity assay in MT-4 cells. To be noted: human; uninfected MT-4 cells, 5 days incubation, Cell Titer Glo; read-out: MT4 CC50. It counts as cell-based. Here is the method:
Compounds were tested in a high-throughput 384-well assay format for their ability to inhibit the replication of HIV-1 (IIIB) in MT-4 cells. Compounds were serially diluted (1.3) in DMSO on 384-well polypropylene plates and further diluted 200-fold into complete RPMI media (10% FBS, 1% P/S) using the Biotek Micro Flow and Labcyte ECHO acoustic dispenser. Each plate contained up to 8 test compounds, with negative (No Drug Control) and 5 μM AZT positive controls. MT-4 cells were pre-infected with 10 μL of either RPMI (mock-infected) or a fresh 1:250 dilution of HIV-1 IIIB concentrated virus stock. Infected and uninfected MT-4 cells were further diluted in complete RPMI media and added to each plate using a Micro Flow dispenser. After 5 days incubation in a humidified and temperature controlled incubator (37° C.), Cell Titer Glo (Promega) was added to the assay plates and chemiluminescence read using an Envision plate-reader.
Assays were performed as above except uninfected MT-4 cells were added to each well containing test compound. In addition, […] puromycin was added to the last column of each assay plate to assess a base level of cytotoxicity.
Background: Cellular ATP, detected with luciferase, serves as a proxy for viable cell number.
Consider `COC1=NO[C@@]2(CC[C@H](C)N3C[C@H]2n2cc(C(=O)NCc4ccc(F)cc4F)c(=O)c(OC(=O)C(C)C)c2C3=O)C1` [Example 48, (3′S,5S,7′R)-10′-((2,4-difluorobenzyl)carbamoyl)-3-methoxy-3′-methyl-1′,11′-dioxo-1′,4′,5′,11′-tetrahydro-3′H,4H,7′H-spiro[isoxazole-5,6′-[2,7]methanopyrido[1,2-a][1,4]diazonin]-12′-yl isobutyrate], for which the CC50 at 5 days was 22.4 µM.

Take `CC1=NO[C@@]2(CC[C@H](C)N3C[C@H]2n2cc(C(=O)NCc4ccc(F)cc4F)c(=O)c(OC(=O)C(C)C)c2C3=O)C1` [Example 49, (3′S,5S,7′R)-10′-((2,4-difluorobenzyl)carbamoyl)-3,3′-dimethyl-1′,11′-dioxo-1′,4′,5′,11′-tetrahydro-3′H,4H,7′H-spiro[isoxazole-5,6′-[2,7]methanopyrido[1,2-a][1,4]diazonin]-12′-yl isobutyrate]: the CC50 at 5 days worked out at 15.1 µM. Take `CCC(C)C(=O)Oc1c2n(cc(C(=O)NCc3ccc(F)cc3F)c1=O)[C@@H]1CN(C2=O)[C@@H](C)CC[C@]12CC(OC)=NO2` (stereo partly drawn) [Example 50, (3′S,5S,7′R)-10′-((2,4-difluorobenzyl)carbamoyl)-3-methoxy-3′-methyl-1′,11′-dioxo-1′,4′,5′,11′-tetrahydro-3′H,4H,7′H-spiro[isoxazole-5,6′-[2,7]methanopyrido[1,2-a][1,4]diazonin]-12′-yl 2-methylbutanoate]: the CC50 at 5 days was determined as 21.7 µM. In the case of `CCC(C)C(=O)Oc1c2n(cc(C(=O)NCc3ccc(F)cc3F)c1=O)[C@@H]1CN(C2=O)[C@@H](C)CC[C@]12CC(C)=NO2` (stereo partly drawn) [Example 51, (3′S,5S,7′R)-10′-((2,4-difluorobenzyl)carbamoyl)-3,3′-dimethyl-1′,11′-dioxo-1′,4′,5′,11′-tetrahydro-3′H,4H,7′H-spiro[isoxazole-5,6′-[2,7]methanopyrido[1,2-a][1,4]diazonin]-12′-yl 2-methylbutanoate] it was 20 µM; in that of `CC1=NO[C@@]2(CC[C@H](C)N3C[C@H]2n2cc(C(=O)NCc4ccc(F)cc4F)c(=O)c(OC(=O)CCCC(=O)O)c2C3=O)C1` [Example 72, 5-(((3′S,5S,7′R)-10′-((2,4-difluorobenzyl)carbamoyl)-3,3′-dimethyl-1′,11′-dioxo-1′,4′,5′,11′-tetrahydro-3′H,4H,7′H-spiro[isoxazole-5,6′-[2,7]methanopyrido[1,2-a][1,4]diazonin]-12′-yl)oxy)-5-oxopentanoic acid], 10.8 µM.

Turning to `COC1=NO[C@@]2(CC[C@H](C)N3C[C@H]2n2cc(C(=O)NCc4ccc(F)cc4F)c(=O)c(OC(=O)CCCCCC(=O)O)c2C3=O)C1` [Example 74, 7-(((3′S,5S,7′R)-10′-((2,4-difluorobenzyl)carbamoyl)-3-methoxy-3′-methyl-1′,11′-dioxo-1′,4′,5′,11′-tetrahydro-3′H,4H,7′H-spiro[isoxazole-5,6′-[2,7]methanopyrido[1,2-a][1,4]diazonin]-12′-yl)oxy)-7-oxoheptanoic acid], the CC50 at 5 days is 26.3 µM.

Take `COC(=O)N[C@@H](C)C(=O)Oc1c2n(cc(C(=O)NCc3ccc(F)cc3F)c1=O)[C@@H]1CN(C2=O)[C@@H](C)CC[C@]12CC(OC)=NO2` [Example 78]: the CC50 at 5 days is 16.2 µM. In the case of `COC(=O)N[C@@H](C)C(=O)Oc1c2n(cc(C(=O)NCc3ccc(F)cc3F)c1=O)[C@@H]1CN(C2=O)[C@@H](C)CC[C@]12CC(C)=NO2` [Example 79] it was 19.5 µM; in that of `COC1=NO[C@@]2(CC[C@H](C)N3C[C@H]2n2cc(C(=O)NCc4ccc(F)cc4F)c(=O)c(OCOC(=O)C(C)C)c2C3=O)C1` [Example 108, (((3′S,5S,7′R)-10′-((2,4-difluorobenzyl)carbamoyl)-3-methoxy-3′-methyl-1′,11′-dioxo-1′,4′,5′,11′-tetrahydro-3′H,4H,7′H-spiro[isoxazole-5,6′-[2,7]methanopyrido[1,2-a][1,4]diazonin]-12′-yl)oxy)methyl isobutyrate], 21.7 µM; in that of `CC1=NO[C@@]2(CC[C@H](C)N3C[C@H]2n2cc(C(=O)NCc4ccc(F)cc4F)c(=O)c(OCOC(=O)C(C)C)c2C3=O)C1` [Example 109, (((3′S,5S,7′R)-10′-((2,4-difluorobenzyl)carbamoyl)-3,3′-dimethyl-1′,11′-dioxo-1′,4′,5′,11′-tetrahydro-3′H,4H,7′H-spiro[isoxazole-5,6′-[2,7]methanopyrido[1,2-a][1,4]diazonin]-12′-yl)oxy)methyl isobutyrate], 15.5 µM. As for `COC(=O)Oc1c2n(cc(C(=O)NCc3ccc(F)cc3F)c1=O)[C@@H]1CN(C2=O)[C@@H](C)CC[C@]12CC(OC)=NO2` [Example 122, (03'S,5S,7′R)-10′-((2,4-difluorobenzyl)carbamoyl)-3-methoxy-3′-methyl-1′,11′-dioxo-1′,4′,5′,11′-tetrahydro-3′H,4H,7′H-spiro[isoxazole-5,6′-[2,7]methanopyrido[1,2-a][1,4]diazonin]-12′-yl methyl carbonate], the figure is 19.8 µM. In the case of `CCCOC(=O)Oc1c2n(cc(C(=O)NCc3ccc(F)cc3F)c1=O)[C@@H]1CN(C2=O)[C@@H](C)CC[C@]12CC(C)=NO2` [Example 125, (3′S,5S,7′R)-10′-((2,4-difluorobenzyl)carbamoyl)-3,3′-dimethyl-1′,11′-dioxo-1′,4′,5′,11′-tetrahydro-3′H,4H,7′H-spiro[isoxazole-5,6′-[2,7]methanopyrido[1,2-a][1,4]diazonin]-12′-yl propyl carbonate] it was 18.5 µM; in that of `CCCOC(=O)Oc1c2n(cc(C(=O)NCc3ccc(F)cc3F)c1=O)[C@@H]1CN(C2=O)[C@@H](C)CC[C@]12CC(OC)=NO2` [Example 126, (3′S,5S,7′R)-10′-((2,4-difluorobenzyl)carbamoyl)-3-methoxy-3′-methyl-1′,11′-dioxo-1′,4′,5′,11′-tetrahydro-3′H,4H,7′H-spiro[isoxazole-5,6′-[2,7]methanopyrido[1,2-a][1,4]diazonin]-12′-yl propyl carbonate], 21.9 µM; in that of `CC1=NO[C@@]2(CC[C@H](C)N3C[C@H]2n2cc(C(=O)NCc4ccc(F)cc4F)c(=O)c(OC(=O)OCCCCCCC(C)C)c2C3=O)C1` [Example 158, (3′S,5S,7′R)-10′-((2,4-difluorobenzyl)carbamoyl)-3,3′-dimethyl-1′,11′-dioxo-1′,4′,5′,11′-tetrahydro-3′H,4H,7′H-spiro[isoxazole-5,6′-[2,7]methanopyrido[1,2-a][1,4]diazonin]-12′-yl (7-methyloctyl) carbonate], 16.8 µM.

For `COC1=NO[C@@]2(CC[C@H](C)N3C[C@H]2n2cc(C(=O)NCc4ccc(F)cc4F)c(=O)c(OC(=O)OCCCCCCC(C)C)c2C3=O)C1` [Example 159, (3′S,5S,7′R)-10′-((2,4-difluorobenzyl)carbamoyl)-3-methoxy-3′-methyl-1′,11′-dioxo-1′,4′,5′,11′-tetrahydro-3′H,4H,7′H-spiro[isoxazole-5,6′-[2,7]methanopyrido[1,2-a][1,4]diazonin]-12′-yl (7-methyloctyl) carbonate], the CC50 at 5 days was 35.9 µM. As for `CCCCCCCCCCCCCCOC(=O)OCOc1c2n(cc(C(=O)NCc3ccc(F)cc3F)c1=O)[C@@H]1CN(C2=O)[C@@H](C)CC[C@]12CC(C)=NO2` [Example 192, (((3′S,5S,7′R)-10′-((2,4-difluorobenzyl)carbamoyl)-3,3′-dimethyl-1′,11′-dioxo-1′,4′,5′,11′-tetrahydro-3′H,4H,7′H-spiro[isoxazole-5,6′-[2,7]methanopyrido[1,2-a][1,4]diazonin]-12′-yl)oxy)methyl tetradecyl carbonate], the CC50 at 5 days was at least 50 µM. In the case of `CCCCCCCCCCCCCCOC(=O)OCOc1c2n(cc(C(=O)NCc3ccc(F)cc3F)c1=O)[C@@H]1CN(C2=O)[C@@H](C)CC[C@]12CC(OC)=NO2` [Example 193, (((3′S,5S,7′R)-10′-((2,4-difluorobenzyl)carbamoyl)-3-methoxy-3′-methyl-1′,11′-dioxo-1′,4′,5′,11′-tetrahydro-3′H,4H,7′H-spiro[isoxazole-5,6′-[2,7]methanopyrido[1,2-a][1,4]diazonin]-12′-yl)oxy)methyl tetradecyl carbonate] it was at least 50 µM; in that of `CC1=NO[C@@]2(CC[C@H](C)N3C[C@H]2n2cc(C(=O)NCc4ccc(F)cc4F)c(=O)c(OCOC(=O)OCCCCCCC(C)C)c2C3=O)C1` [Example 209, (((3′S,5S,7′R)-10′-((2,4-difluorobenzyl)carbamoyl)-3,3′-dimethyl-1′,11′-dioxo-1′,4′,5′,11′-tetrahydro-3′H,4H,7′H-spiro[isoxazole-5,6′-[2,7]methanopyrido[1,2-a][1,4]diazonin]-12′-yl)oxy)methyl (7-methyloctyl) carbonate], at least 50 µM; in that of `COC1=NO[C@@]2(CC[C@H](C)N3C[C@H]2n2cc(C(=O)NCc4ccc(F)cc4F)c(=O)c(OCOC(=O)OCCCCCCC(C)C)c2C3=O)C1` [Example 210, (((3′S,5S,7′R)-10′-((2,4-difluorobenzyl)carbamoyl)-3-methoxy-3′-methyl-1′,11′-dioxo-1′,4′,5′,11′-tetrahydro-3′H,4H,7′H-spiro[isoxazole-5,6′-[2,7]methanopyrido[1,2-a][1,4]diazonin]-12′-yl)oxy)methyl (7-methyloctyl) carbonate], at least 50 µM.

As a reminder, the CC50 is the concentration at which the toxic effect on the cells reaches its halfway point.
